Series [1] concerns the target fatty acid amide hydrolase (FAAH) (Rattus norvegicus (Rat), UniProt P97612). The series can be described thus: FAAH enzyme assay: inhibition of anandamide (AEA) hydrolysis, arachidonic acid quantified by HPLC. The class given is biochemical. Particulars: for IC50 / Ki: eight-point assay; for IC50: anandamide hydrolysis by FAAH, read-out: IC50; for Ki: calculated with Prizm software, read-out: Ki; for inhibition at 100 µM: one-point assay, inhibitor 100 μM, partially purified rat brain FAAH, 15 min, read-out: % Inhibition (Concentration). On the procedure:
The resulting supernatant is injected onto the HPLC.

fatty acid amide hydrolase (FAAH), sequence (P97612 whole entry): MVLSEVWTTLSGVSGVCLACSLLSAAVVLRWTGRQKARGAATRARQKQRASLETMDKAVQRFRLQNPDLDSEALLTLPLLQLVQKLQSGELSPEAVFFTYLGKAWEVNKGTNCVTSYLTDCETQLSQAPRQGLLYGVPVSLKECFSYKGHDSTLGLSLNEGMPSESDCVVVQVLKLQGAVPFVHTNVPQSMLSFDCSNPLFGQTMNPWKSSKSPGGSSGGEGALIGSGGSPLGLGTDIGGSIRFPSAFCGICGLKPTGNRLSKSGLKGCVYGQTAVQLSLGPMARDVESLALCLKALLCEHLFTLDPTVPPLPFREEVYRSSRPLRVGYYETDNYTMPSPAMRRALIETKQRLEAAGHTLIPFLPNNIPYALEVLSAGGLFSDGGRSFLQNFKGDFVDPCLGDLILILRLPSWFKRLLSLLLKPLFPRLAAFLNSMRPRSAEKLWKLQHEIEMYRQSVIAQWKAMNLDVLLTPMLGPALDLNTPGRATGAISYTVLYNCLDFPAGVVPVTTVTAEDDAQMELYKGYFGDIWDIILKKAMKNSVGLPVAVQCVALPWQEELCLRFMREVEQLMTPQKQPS

In the case of `O=S(=O)(Cl)CCCCOc1ccccc1` [Compound 16, 4-Phenoxybutyl sulfonyl chloride], the melting point (as a rule, the temperature, or range, at which the solid turns liquid) was in the range of 65 to 67 °C. In addition, in series [1], the IC50 (commonly the concentration needed to halve the response being measured) stood at 53800 nM; the Ki (usually a dissociation constant, usually derived from enzyme kinetics or from competition with a known ligand) is 12700 nM; the inhibition at 100 µM amounted to 99%.

In turn, `O=C(CCCCCCOc1ccc(OCc2ccccc2)cc1)C(F)(F)F` [Compound 23.4, 1,1,1-Trifluoro-8-[4-(Benzyloxy)phenoxy]-2-octanone] had a melting point of 82 to 83 °C. For the same molecule, in series [1], the half-inhibitory concentration (IC50) worked out at 11800 nM, the Ki is 830 nM and the inhibition at 100 µM came to 88%.

Molecule `O=C(CCCCOc1ccccc1O)C(F)(F)F` [Compound 24.9, 1,1,1-Trifluoro-6-[2-(hydroxy)phenoxy]-2-hexanone] returned a melting point of 51 to 52 °C. Further, in series [1], the half-inhibitory concentration (IC50) was 23900 nM, the inhibitory constant (Ki) is 1600 nM and the inhibition at 100 µM was 60%.

`O=C(CCCCOc1ccccc1)C(F)(F)F` [Compound 23.12, 1,1,1-Trifluoro-6-phenoxy-2-hexanone] displayed a melting point of 50 to 51 °C. For the same molecule, in series [1], the IC50 is 25400 nM, the Ki is 2800 nM and the inhibition at 100 µM turned out to be 65%.

In turn, `O=S(=O)(F)CCCCCc1ccc(OCc2ccccc2)cc1` [Compound 13.4, 5-(4-Benzyloxy-phenyl)-pentanesulfonyl fluoride] came in with a melting point of 66 to 68 °C. In series [1], the 50% inhibitory concentration (IC50) came out at 180 nM, the Ki was 15 nM and the inhibition at 100 µM turned out to be 97%.

For `O=S(=O)(F)CCCCOc1ccccc1` [Compound 17, 4-Phenoxybutylsulfonyl fluoride], the melting point lay in the range of 74 to 76 °C. In series [1], the concentration for half-maximal inhibition (IC50) stood at 226 nM, the inhibition constant Ki was 53 nM and the inhibition at 100 µM came to 100%.

For the molecule `O=S(=O)(Cl)CCCCCCCc1ccc(OCc2ccccc2)cc1` [Compound 12.1, 7-(4-Benzyloxy-phenyl)-heptanesulfonyl chloride], the melting point is 33 to 35 °C. In series [1], the IC50 was 53800 nM, the Ki was 12700 nM and the inhibition at 100 µM is 99%.

The molecule `O=C(CCCCCOc1ccc(OCc2ccccc2)cc1)C(F)(F)F` [Compound 23.3, 1,1,1-Trifluoro-7-[4-(Benzyloxy)phenoxy]-2-heptanone] came in with a melting point of 59 to 60 °C. In addition, in series [1], the half-maximal inhibitory concentration (IC50) came out at 2900 nM, the inhibitory constant (Ki) is 320 nM and the inhibition at 100 µM was found to be 94%.

For the molecule `O=S(=O)(F)CCCCCCCc1ccc(O)cc1` [Compound 14.1, 7-(4-Hydroxy-phenyl)-heptanesulfonyl fluoride], the melting point fell in the range of 47 to 51 °C. For the same molecule, the inhibition at 100 µM in series [1] is 100%.

In turn, `O=C(CCCCOc1ccc(OCc2ccccc2)cc1)C(F)(F)F` [Compound 23.2, 1,1,1-Trifluoro-6-[4-(Benzyloxy)phenoxy]-2-hexanone] returned a melting point of 95.5 to 96 °C. Besides, in series [1], the IC50 is 13600 nM, the inhibition constant (Ki) is 1200 nM and the inhibition at 100 µM turned out to be 76%.

Turning to `O=C(CCCCCCOc1ccc(O)cc1)C(F)(F)F` [Compound 24.4, 1,1,1-Trifluoro-8-[4-(hydroxy)phenoxy]-2-octanone], the melting point lay in the range of 61 to 62 °C. In addition, in series [1], the half-inhibitory concentration (IC50) worked out at 760 nM, the Ki is 54 nM and the inhibition at 100 µM was determined as 89%.

`O=S(=O)(F)CCCCCCCc1ccc(OCc2ccccc2)cc1` [Compound 13.1, 7-(4-Benzyloxy-phenyl)-heptanesulfonyl fluoride] registered a melting point of 35 to 38 °C. Also, in series [1], the inhibition at 100 µM was found to be 100%.

`O=C(CCCCCOc1ccccc1OCc1ccccc1)C(F)(F)F` [Compound 23.10, 1,1,1-Trifluoro-7-[2-(Benzyloxy)phenoxy]-2-heptanone] gave a melting point of 31 to 32 °C. Further, in series [1], the IC50 came to 7900 nM, the Ki is 553 nM and the inhibition at 100 µM worked out at 95%.
